Measured values published in PubChem BioAssay (NCI).
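Tested at 5 concentrations; 48 h exposure; 96-well plates; endpoints linearly interpolated, else capped at highest concentration. At the GI50, growth is halved. Definition used: TGI = concentration required for complete inhibition of growth.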

Key:
Assay in all cases: NCI anticancer screen, dose series, 48 h
A498 renal = tested on: A498 renal
BT-549 breast = tested on: BT-549 breast
DU-145 prostate = tested on: DU-145 prostate
HCT-116 colon = tested on: HCT-116 colon
MCF7 breast = tested on: MCF7 breast
MDA-MB-435 = tested on: MDA-MB-435
MOLT-4 leukemia = tested on: MOLT-4 leukemia
OVCAR-3 ovarian = tested on: OVCAR-3 ovarian
SF-539 CNS = tested on: SF-539 CNS
SK-MEL-2 melanoma = tested on: SK-MEL-2 melanoma

SMILES	TGI (A498 renal)	TGI (BT-549 breast)	TGI (DU-145 prostate)	TGI (HCT-116 colon)	TGI (MCF7 breast)	TGI (MDA-MB-435)	TGI (MOLT-4 leukemia)	TGI (OVCAR-3 ovarian)	TGI (SF-539 CNS)	TGI (SK-MEL-2 melanoma)	GI50 (A498 renal)	GI50 (BT-549 breast)	GI50 (DU-145 prostate)	GI50 (HCT-116 colon)	GI50 (MCF7 breast)	GI50 (MDA-MB-435)	GI50 (MOLT-4 leukemia)	GI50 (OVCAR-3 ovarian)	GI50 (SF-539 CNS)	GI50 (SK-MEL-2 melanoma)
C=C(Br)C(C)(Br)CCC(Br)C(C)(C)Cl (stereo not drawn)	45.5 µM	52.6 µM	43.1 µM	25 µM	31.5 µM	41.9 µM	24.5 µM	33.5 µM	31.6 µM	51.6 µM	–	–	–	–	–	–	–	–	–	–
Cc1cc(I)cc(CN(C)CCCN2CCCCC2)c1O	38.3 µM	22.9 µM	33.8 µM	21.3 µM	35.9 µM	33.4 µM	13.4 µM	33.1 µM	26.9 µM	37 µM	19.8 µM	10.7 µM	16.7 µM	9.24 µM	16.7 µM	15 µM	3.2 µM	15.9 µM	13.7 µM	18.4 µM
CC(=O)[C@@]12O[C@@H]1CC1C3CCC4=CC(O)CCC4(C)C3CCC12C (stereo partly drawn)	59.1 µM	> 100 µM	31.8 µM	> 100 µM	> 100 µM	> 100 µM	> 100 µM	> 100 µM	> 100 µM	> 100 µM	2.04 µM	27.8 µM	15 µM	31.7 µM	> 100 µM	> 100 µM	> 100 µM	78.5 µM	39 µM	> 100 µM
COc1cc(OC)cc(-c2cc(=O)c3c(OC)c(OC)c(OC)c(OC)c3o2)c1	89.6 µM	> 100 µM	> 100 µM	> 100 µM	> 100 µM	> 100 µM	> 100 µM	> 100 µM	> 100 µM	55.1 µM	–	–	–	–	–	–	–	–	–	–
CCN(CC)c1ccc(-c2cc(-c3cc(OC)c(OC)c(OC)c3)nc(N3CCOCC3)c2C#N)cc1	39.5 µM	> 100 µM	> 100 µM	21.1 µM	17.7 µM	13.7 µM	> 100 µM	20.9 µM	12.7 µM	> 26.2 µM	2.88 µM	0.48 µM	2.18 µM	0.457 µM	2.03 µM	1.32 µM	2.45 µM	3.19 µM	1.36 µM	3.15 µM
CC(=O)OC1=CC(n2cc(F)c(=O)[nH]c2=O)OC(C)C1=O (stereo not drawn)	> 44.9 µM	> 100 µM	> 100 µM	> 100 µM	> 76.2 µM	> 100 µM	> 100 µM	> 100 µM	29 µM	> 100 µM	–	–	–	–	–	–	–	–	–	–
Cc1cc(O)c(/C=N/C(=S)NCc2ccccc2)c(=O)o1	> 100 µM	> 100 µM	> 100 µM	> 100 µM	> 100 µM	> 100 µM	> 100 µM	> 100 µM	> 100 µM	> 100 µM	–	–	–	–	–	–	–	–	–	–
O=C(/C=C/c1ccncc1)c1cc(Cl)ccc1O	21.8 µM	31.1 µM	31.5 µM	27.9 µM	27.7 µM	41 µM	–	32.9 µM	41.9 µM	37.8 µM	6.96 µM	16.6 µM	17.4 µM	14.6 µM	13.1 µM	17.1 µM	–	17.3 µM	18 µM	19.7 µM
